Experimental data reported in paper PMC12566971, “Polyprenylated Acylphloroglucinols from Hypericum rochelii and Hypericum olympicum—Cytotoxic Effects on Non-Tumorigenic Cell Lines and Antibacterial Potential” (Pharmaceuticals, 2025).
Converted amounts (≈) assume the structure as drawn. “And” between values parts separate entries of the source, which are not always exact repeats. Equal values may be shown once.

Tests used:
[1] = system: HEK-293 cells; assay: Colony-forming unit assay; type: cell-based, human; settings: for Percentage of colonies, HEK-293: untreated control = 100%
Method: The CFU was also performed according to ISO 10993-5 [56]. Briefly, the cell lines were seeded at a concentration like for the MTT assay in 6-well plates, treated with the chosen agents and left for a 48 h exposure. Then, the cells were trypsinized, and pre-calculated 20 to 100 µL from the cell suspension was added to a sterile Roswell Park Memorial Institute (RPMI) medium (RPMI-A, Capricorn Scientific), containing 20% of the respective cell culture medium for each cell line but with a final concentration of FBS and L-glutamine of 40–42% and 0.8–1.2 mM, respectively, 0.2% NaHCO3 (S6297, Merck Sigma-Aldrich, Saint Louis, MI, USA), and 0.8% methylcellulose (M0512, Merck Sigma-Aldrich) for viscosity. The viscous cell solution was vortexed for 10 s and dispensed in an equal number of cells per well in 6-well plates (1.2 mL per well) in triplicate for each concentration of treatment. HaCaT and HEK-293 were seeded at a concentration of 2500 cells per mL, CCL-1 and HEPG2—2000 cells per mL, and HGF—1000 cells per mL. The plates were incubated for 6 to 10 days, and when the colonies reached 20 to 50 cells per colony, 100 µL MTT salt solution was added to each well. After half an hour, the stained colonies were counted manually using a microscope.

[2] = system: human total cytochrome P450 (CYP450); assay: ELISA for total cytochrome P450 in HEPG2 cells; type: in vitro ADME; settings: HEPG2, 24 h, concentrations inhibiting S. aureus
Method: The effect on CYP450 was tested using the ELISA method on the HEPG2 liver cell line. As mentioned, it has weak or absent expression of the CYP450 superfamily, e.g., CYP3A4, CYP1A2, etc., and that low basal activity makes it a good model for studies of CYP inducers. In addition, these cells have the advantage of immortalization due to their cancerous nature. The standard curves after the two ELISA tests (Figure S7) were prepared as a standard dose–response curve, also called a four-parameter logistic (4-PL) curve.
Human total cytochrome P450 was examined using the Human Cytochrome P450 ELISA Kit (MBS705506, MyBioSource, San Diego, CA, USA) according to the manufacturer’s instructions. HEPG2 cells were seeded at a concentration of 100,000 cells/mL in a 6-well plate, and the overnight culture was treated with selected Hypericum agents. After 24 h of exposure, the protocol was performed according to the kit instructions.
The test principle uses the sandwich quantitative enzyme immunoassay technique. A microplate was pre-coated with an antibody specific for cytochrome P450. Standards and samples were pipetted into the wells, and if cytochrome P450 molecules were present, they were bound by the immobilized antibody. […] The color development was stopped, and its intensity was measured on a microplate reader ELx800 (BioTek Instruments, Inc., Winooski, VT, USA).

[3] = system: Streptococcus mutans; assay: MIC and MBC evaluation (broth microdilution, agar plate assay); type: cell-based
Method: (§1) The MIC and MBC assessment on the pathogenic bacteria and the candidate probiotic lactic acid bacteria was carried out by the broth microdilution assay (BMD) and the agar plate assay, respectively, as described in [4]. The metabolic (dehydrogenase) activity of the lactic acid bacteria was assessed as described in [4].
(§2) P. aeruginosa PAO1 ATCC 15692 was purchased from the American Type Cell Culture Collection (ATCC, Manassas, VA, USA). S. mutans DSM 20523 was bought from the German Collection of Microorganisms and Cell Cultures (DSMZ GmbH, Braunschweig, Germany). All other bacteria and strains were purchased as described in [4].

[4] = system: Staphylococcus aureus; assay: as above; type: cell-based
Method: as §1, §2

[5] = system: Streptococcus pyogenes; assay: as above; type: cell-based
Method: as §1, §2

[6] = system: Enterococcus faecalis; assay: as above; type: cell-based
Method: as §1, §2

[7] = system: S. aureus; assay: Time kill assay; type: cell-based, Staphylococcus aureus
Method: A time kill assay was performed according to the modified protocol of Sendi and Ruppen, 2015 [137]. […] From these dilutions, 25 µL was seeded in brain heart infusion agar in a well of a 12-well plate. An untreated control was plated in the same way. Then, the bacterial suspension (treated and untreated) was placed in an incubator (MLW Kombinat, Leipzig, Germany) at 37 °C. Again, 25 µL of it was taken for seeding after 1, 2, 3, 4, 6, and 24 h, which equals a total of 7 time points. After 16–24 h of incubation, the colonies in the seeded plates from all dilutions were counted, and the number of colony-forming units (CFU) per mL, or in other words, bacteria per mL, was calculated.

[8] = system: Methicillin-Resistant S. aureus (MRSA); settings: ref [4],[29]; cited from earlier work
[9] = system: Staphylococcus aureus; settings: ref [4],[29]; cited from earlier work
[10] = bactericidal if ≤ 4, bacteriostatic if > 4

CC(C)=CCCC1(C)C(CC=C(C)C)CC2C(=O)C1(C(=O)C(C)C)C(=O)C(CC=C(C)C)=C2O (centres unmarked) [Olympiforin B]
Colonies per well for HEK-293 cells ([1]; 1/2 × IC50, 48 h exposure): 102 | Percentage of colonies, HEK-293 ([1]; 1/2 × IC50): 97% | Colonies per well for HEK-293 cells ([1]; 2 × IC50, 48 h exposure): 80 | Percentage of colonies, HEK-293 ([1]; 2 × IC50): 77% | Colonies per well for HEK-293 cells ([1]; IC50, 48 h exposure): 99 | Percentage of colonies, HEK-293 ([1]; IC50): 95% | Induction of total CYP450 [2]: hardly induce | MBC ([3]; Streptococcus mutans, read-out: MBC for S. mutans): 6.25 µg/mL and 11.1 µM | MIC ([3]; Streptococcus mutans, read-out: MIC for S. mutans): 3 µg/mL and 5.57 µM | MBC/MIC ratio, Streptococcus mutans [3, 10]: 2 | MBC ([4]; Staphylococcus aureus, read-out: Minimal bactericidal concentration (MBC), Staphylococcus aureus): 19 µg/mL and 34 µM | MBC/MIC ratio, S. aureus [4, 10]: 19 | MBC ([5]; Streptococcus pyogenes): 60 µg/mL and 107 µM | MBC/MIC ratio, S. pyogenes [5, 10]: 15 | MBC ([6]; Enterococcus faecalis): 55 µg/mL and 98 µM | MBC/MIC ratio, E. faecalis [6, 10]: 14 | Bacteria remaining in time kill assay ([7]; 1/2 × MBC, 24 h): 302,000 CFU/mL | Outcome of time kill assay ([7]; MBC concentration, by 24 h): killed all bacteria | MIC on bacteria, MRSA [8]: 1 µg/mL (≈ 2.13 µM) | MIC on bacteria, S. aureus [9]: 1 µg/mL (≈ 2.13 µM)
